This note sets out measurements from ChEMBL document CHEMBL1141367, “Substituted 2-[(4-aminomethyl)phenoxy]-2-methylpropionic acid PPARalpha agonists. 1. Discovery of a novel series of potent HDLc raising agents” (J Med Chem, 2007).

SMILES strings stand for the structures.

Test [1] concerns the target T1, Peroxisome proliferator-activated receptor alpha (Homo sapiens) (UniProt Q07869).
T1 sequence (whole entry): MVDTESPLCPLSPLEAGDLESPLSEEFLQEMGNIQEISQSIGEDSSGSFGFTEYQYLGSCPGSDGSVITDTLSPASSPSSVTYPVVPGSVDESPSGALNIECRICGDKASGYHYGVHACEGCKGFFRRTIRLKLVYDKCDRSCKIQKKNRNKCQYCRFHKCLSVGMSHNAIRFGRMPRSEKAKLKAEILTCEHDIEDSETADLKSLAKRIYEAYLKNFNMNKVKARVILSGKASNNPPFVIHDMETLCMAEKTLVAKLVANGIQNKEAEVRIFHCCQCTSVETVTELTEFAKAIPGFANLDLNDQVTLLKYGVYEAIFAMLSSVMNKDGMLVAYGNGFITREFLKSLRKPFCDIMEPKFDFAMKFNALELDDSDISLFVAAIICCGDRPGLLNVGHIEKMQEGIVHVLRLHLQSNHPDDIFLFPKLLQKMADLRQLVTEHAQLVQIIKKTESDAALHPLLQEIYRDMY
Nature of the test: Agonist potency at PPARalpha expressed in CV1 cells relative to GW-590735. It is filed as functional, cell-based. Particulars: CV-1.

For test [2], the target named is T2, Peroxisome proliferator-activated receptor gamma (Homo sapiens, UniProt P37231).
T2 sequence (P37231 whole entry): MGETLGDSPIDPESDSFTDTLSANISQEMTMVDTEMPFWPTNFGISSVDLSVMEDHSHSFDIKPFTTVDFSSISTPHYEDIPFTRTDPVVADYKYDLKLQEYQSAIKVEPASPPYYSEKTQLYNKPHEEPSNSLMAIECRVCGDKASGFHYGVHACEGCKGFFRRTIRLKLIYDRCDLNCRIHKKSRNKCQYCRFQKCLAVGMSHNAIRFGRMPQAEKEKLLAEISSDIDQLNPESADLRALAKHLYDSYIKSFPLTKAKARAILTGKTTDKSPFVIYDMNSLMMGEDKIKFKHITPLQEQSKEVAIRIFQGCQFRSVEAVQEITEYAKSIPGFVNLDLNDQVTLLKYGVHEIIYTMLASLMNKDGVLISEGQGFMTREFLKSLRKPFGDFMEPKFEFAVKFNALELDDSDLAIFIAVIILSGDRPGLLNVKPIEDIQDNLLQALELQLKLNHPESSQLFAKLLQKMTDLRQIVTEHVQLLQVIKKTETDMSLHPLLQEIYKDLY
It is filed as functional, cell-based, CV-1.
Description: Agonist potency at PPARgamma in CV1 cells by cell based transient transfection assay

In test [3] the target is T3, Peroxisome proliferator-activated receptor alpha (Homo sapiens, UniProt Q07869).
T3 sequence (Q07869 whole entry): T1 sequence (whole entry)
Description: Agonist potency at PPARalpha in CV1 cells by cell based transient transfection assay

The target in test [4] is T4, Peroxisome proliferator-activated receptor delta (Homo sapiens, UniProt Q03181).
T4 sequence (Q03181 whole entry): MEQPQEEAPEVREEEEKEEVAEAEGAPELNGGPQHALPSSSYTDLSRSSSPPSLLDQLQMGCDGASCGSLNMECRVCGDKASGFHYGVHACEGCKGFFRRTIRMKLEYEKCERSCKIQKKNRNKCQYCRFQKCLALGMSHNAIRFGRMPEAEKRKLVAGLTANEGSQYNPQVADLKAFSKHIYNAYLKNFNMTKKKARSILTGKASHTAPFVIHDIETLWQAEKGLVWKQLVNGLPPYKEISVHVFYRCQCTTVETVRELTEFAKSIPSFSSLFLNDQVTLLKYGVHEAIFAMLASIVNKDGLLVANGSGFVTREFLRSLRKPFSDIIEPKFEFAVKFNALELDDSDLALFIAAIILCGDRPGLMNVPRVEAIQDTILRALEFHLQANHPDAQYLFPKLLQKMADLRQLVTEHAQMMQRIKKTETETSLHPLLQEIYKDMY
Description: Agonist potency at PPARdelta in CV1 cells by cell based transient transfection assay

The test system of test [5] is Mus musculus. Kind of test: Decrease in plasma TG level in human Apo-A-I transgenic C57BL/6 mouse at 50 mg/kg. The format is functional. Also on record: scale not given: the % may be the effect or the level left.
Test [6] deals with Mus musculus. Kind of test: Decrease in plasma VLDL level in human Apo-A-I transgenic C57BL/6 mouse at 50 mg/kg. The format is functional. Also on record: scale not given: the % may be the effect or the level left.
In test [7] the test system is Mus musculus. Kind of test: Decrease in LDL cholesterol level in human Apo-A-I transgenic C57BL/6 mouse at 50 mg/kg. The format is functional. Set-up: scale not given: the % may be the effect or the level left.
Test [8] has as its system Mus musculus. Nature of the test: Increase in HDL cholesterol level in human Apo-A-I transgenic C57BL/6 mouse at 50 mg/kg. It is filed as functional.

For `Cc1cc(CCc2sc(-c3ccc(C(F)(F)F)cc3)nc2C)ccc1OCC(=O)O`, in test [1], the Activity turned out to be 85%. Also, the half-maximal effective concentration (EC50) stood at 10000 nM in test [2], 2000 nM in test [3] and 4 nM in test [4].
As for `CC(C)(Oc1ccc(CNC(=O)c2sc(-c3ccc(C(F)(F)F)cc3)nc2C(F)(F)F)cc1)C(=O)O`, in test [1], the Activity is 98%. Further, the EC50 in test [2] is 730 nM; in test [3], 4 nM; in test [4], 8240 nM.
As for `Cc1nc(-c2ccc(O)cc2)sc1C(=O)NCc1ccc(OC(C)(C)C(=O)O)cc1`, the EC50 in test [2], in test [3] and in test [4] was more than 10000 nM in each case.
In test [1], `COc1ccc(-c2nc(C)c(C(=O)NCc3ccc(OC(C)(C)C(=O)O)cc3)s2)cc1` showed an Activity of 103%. Besides, the EC50 is more than 10000 nM in test [2], 10 nM in test [3] and more than 10000 nM in test [4].
As for `Cc1nc(-c2ccc([N+](=O)[O-])cc2)sc1C(=O)NCc1ccc(OC(C)(C)C(=O)O)cc1`, the Activity in test [1] was 111%. For the same compound, the EC50 is more than 10000 nM in test [2], 30 nM in test [3] and more than 10000 nM in test [4].
Take `Cc1nc(-c2ccc(C(F)(F)F)cc2)sc1C(=O)NCCc1ccc(OC(C)(C)C(=O)O)cc1`: the Activity in test [1] stood at 129%. The EC50 is more than 10000 nM in test [2], 110 nM in test [3] and more than 10000 nM in test [4].
Consider `Cc1nc(-c2ccc(C(F)(F)F)cc2)sc1CCc1ccc(OC(C)(C)C(=O)O)cc1`, for which the Activity in test [1] was 138%. The concentration giving a half-maximal response (EC50) in test [2] worked out at 1870 nM; in test [3], 210 nM; in test [4], 20 nM.
For `Cc1nc(-c2ccc(C(F)(F)F)cc2)sc1C(=O)N(C)Cc1ccc(OC(C)(C)C(=O)O)cc1`, the Activity in test [1] was 84%. Also, the EC50 in test [2] was more than 10000 nM; in test [3], 240 nM; in test [4], more than 10000 nM.
Turning to `Cc1nc(-c2ccc(C(C)(C)C)cc2)sc1C(=O)NCc1ccc(OC(C)(C)C(=O)O)cc1`, in test [1], the Activity came to 66%. Moreover, the EC50 in test [2] was 860 nM; in test [4] it was more than 10000 nM.
`Cc1nc(-c2ccc(Cl)cc2)sc1C(=O)NCc1ccc(OC(C)(C)C(=O)O)cc1`: the Activity in test [1] turned out to be 94%. In addition, the EC50 in test [2] is more than 10000 nM; in test [3] it was 10 nM.
With `Cc1nc(-c2ccc(C(F)(F)F)cc2)sc1CNC(=O)c1ccc(OC(C)(C)C(=O)O)cc1`, the Activity in test [1] was determined as 109%. Moreover, the 50% effective concentration (EC50) in test [2] is more than 10000 nM; in test [3] it was 1320 nM; in test [4], 6260 nM.
The corresponding values for `Cc1nc(-c2ccc(N)cc2)sc1C(=O)NCc1ccc(OC(C)(C)C(=O)O)cc1` are 67%, more than 10000 nM, 5640 nM and more than 10000 nM.
In test [1], `Cc1nc(-c2cccc(C(F)(F)F)c2)sc1C(=O)NCc1ccc(OC(C)(C)C(=O)O)cc1` came in with an Activity of 106%. Also, the concentration giving a half-maximal response (EC50) was more than 25000 nM in test [2], 4 nM in test [3] and more than 25000 nM in test [4].
Turning to `CC(C)OC(=O)C(C)(C)Oc1ccc(C(=O)c2ccc(Cl)cc2)cc1` [FENOFIBRATE], the Activity in test [5] is reported as 43%; in test [6], 64%; in test [7], 78%; in test [8], 26%.
`Cc1nc(-c2ccc(OS(C)(=O)=O)cc2)sc1C(=O)NCc1ccc(OC(C)(C)C(=O)O)cc1`: the 50% effective concentration (EC50) in test [2], in test [3] and in test [4] was more than 10000 nM throughout.
For the compound `Cc1cc(SCc2sc(-c3ccc(C(F)(F)F)cc3)nc2C)ccc1OCC(=O)O`, the Activity in test [1] came out at 108%.
The compound `Cc1nc(C(=O)NCc2ccc(OC(C)(C)C(=O)O)cc2)c(C)s1` returned an Activity in test [1] of 171%. In addition, the EC50 in test [2] is more than 10000 nM; in test [3], 1890 nM; in test [4] it was 660 nM.
In turn, `Cc1nc(-c2ccccc2C(F)(F)F)sc1C(=O)NCc1ccc(OC(C)(C)C(=O)O)cc1` had an Activity in test [1] of 82%. Besides, the EC50 in test [2] was more than 25000 nM; in test [3], 465 nM; in test [4], 808 nM.
As for `Cc1nc(-c2ccc(C(F)(F)F)cc2)sc1C(=O)Nc1ccc(OC(C)(C)C(=O)O)cc1`, the Activity in test [1] was 69%. In addition, the figures for the EC50 in test [2], in test [3] and in test [4] were more than 10000 nM, 9500 nM and more than 10000 nM, respectively.
`Cc1nc(-c2ccc(OC(F)(F)F)cc2)sc1C(=O)NCc1ccc(OC(C)(C)C(=O)O)cc1` registered an Activity in test [1] of 116%. In test [2], this compound displayed a 50% effective concentration (EC50) of more than 10000 nM.
On to `Cc1nc(-c2ccc(C(F)(F)F)cc2)sc1CNCc1ccc(OC(C)(C)C(=O)O)cc1`, for which the Activity in test [1] stood at 110%. The EC50 in test [2] was more than 10000 nM; in test [3] it was 70 nM; in test [4], 4050 nM.
`Cc1nc(-c2ccc(F)cc2)sc1C(=O)NCc1ccc(OC(C)(C)C(=O)O)cc1` came in with an Activity in test [1] of 118%. Further, the EC50 in test [2] was more than 10000 nM; in test [3], 40 nM; in test [4], more than 10000 nM.
